Measurements: patent publication US20060030585A1, “Tricyclic delta-opioid modulators” (priority 2004, published 2006)
Read-outs that look alike come from different tables or passages of the source.

Assays:
delta opioid receptor = delta opioid receptor (Rattus norvegicus, UniProt P33533); test: Rat brain delta opioid receptor binding assay ([3H]DPDPE); details: Rat delta opioid receptor binding constant, rat forebrain membranes, ~4 nM [3H]DPDPE
Protocol: Rat Brain Delta Opioid Receptor Binding Assay
Procedure: Male, Sprague Dawley rats (150-250 g, VAF, Charles River, Kingston, N.Y.) were killed by CO2, and their brains removed and placed immediately in ice cold Tris HCl buffer (50 mM, pH 7.4). The forebrains were separated from the remainder of the brain by a coronal transection, beginning dorsally at the colliculi and passing ventrally through the midbrain-pontine junction. After dissection, the forebrains were homogenized in Tris buffer in a Teflon®-glass homogenizer. The homogenate was diluted to a concentration of 1 g of forebrain tissue per 80 mL Tris and centrifuged at 39,000×g for 10 min. The pellet was resuspended in the same volume of Tris buffer containing 5 mM MgCl2 with several brief pulses from a Polytron homogenizer. This particulate preparation was used for the delta opioid binding assays. Following incubation with the delta selective peptide ligand ˜4 nM [^3H]DPDPE at 25° C. for 2.5 h in a 96-well plate with total volume of 1 mL, the plate contents were filtered through Wallac filtermat B sheets on a Tomtec 96-well harvester. The filters were rinsed three times with 2 mL of 10 mM HEPES (pH 7.4), and dried in a 650 W microwave oven for 1.75 min twice. To each sample area 2×50 μL of Betaplate Scint scintillation fluid (LKB) was added and the radioactivity quantified on a LKB (Wallac) 1205 BetaPlate liquid scintillation counter.
(§1) Analysis: The data from the scintillation counter were used to calculate either the % inhibition compared to control binding (when only a single concentration of test compound was evaluated) or a Ki value (when a range of concentrations was tested). Percent inhibition was calculated as: [(total dpm-test compound dpm)/(total dpm-nonspecific dpm)]*100. Kd and Ki values were calculated using GraphPad PRISM data analysis program.

mu opioid receptor = mu opioid receptor (Rattus norvegicus, UniProt P33535); test: Rat brain mu opioid receptor binding assay ([3H]DAMGO); details: Rat mu opioid receptor binding constant, rat forebrain membranes, ~0.8 nM [3H]DAMGO
Chain of mu opioid receptor (P33535 whole entry): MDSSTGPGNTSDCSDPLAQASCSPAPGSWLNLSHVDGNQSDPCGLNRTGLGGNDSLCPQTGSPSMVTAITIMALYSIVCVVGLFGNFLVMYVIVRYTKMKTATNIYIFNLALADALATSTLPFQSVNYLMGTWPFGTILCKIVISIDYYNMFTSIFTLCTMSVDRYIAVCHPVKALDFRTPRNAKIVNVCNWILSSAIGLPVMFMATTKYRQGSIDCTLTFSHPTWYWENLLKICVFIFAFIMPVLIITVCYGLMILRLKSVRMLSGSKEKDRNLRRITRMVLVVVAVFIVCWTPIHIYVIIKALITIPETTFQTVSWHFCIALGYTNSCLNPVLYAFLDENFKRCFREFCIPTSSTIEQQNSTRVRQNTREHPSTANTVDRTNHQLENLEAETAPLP
Protocol: Rat Brain Mu Opioid Receptor Binding Assay
Procedure: Male, Sprague Dawley rats (150-250 g, VAF, Charles River, Kingston, N.Y.) were killed by CO2, and their brains removed and placed immediately in ice cold Tris HCl buffer (50 mM, pH 7.4). The forebrains were separated from the remainder of the brain by a coronal transection, beginning dorsally at the colliculi and passing ventrally through the midbrain-pontine junction. After dissection, the forebrains were homogenized in Tris buffer in a Teflon®-glass homogenizer. The homogenate was diluted to a concentration of 1 g of forebrain tissue per 80 mL Tris and centrifuged at 39,000×g for 10 min. The pellet was resuspended in the same volume of Tris buffer containing 5 mM MgCl2 with several brief pulses from a Polytron homogenizer. This particulate preparation was used for the delta opioid binding assays.
as §1, with “concentrations” for “concentrations was”

Chain of delta opioid receptor (P33533 whole entry): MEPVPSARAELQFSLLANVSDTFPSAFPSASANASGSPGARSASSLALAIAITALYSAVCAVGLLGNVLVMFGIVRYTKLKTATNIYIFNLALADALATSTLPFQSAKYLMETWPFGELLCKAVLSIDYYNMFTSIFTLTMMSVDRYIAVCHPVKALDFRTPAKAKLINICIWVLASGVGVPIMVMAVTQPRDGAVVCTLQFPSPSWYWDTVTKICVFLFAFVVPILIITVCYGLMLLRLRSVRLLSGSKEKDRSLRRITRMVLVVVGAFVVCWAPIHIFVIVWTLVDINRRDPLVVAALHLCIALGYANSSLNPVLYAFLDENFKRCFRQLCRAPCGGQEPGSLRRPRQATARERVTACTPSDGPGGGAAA

SMILES	Ki (delta opioid receptor; DOR Ki) [nM]	Ki (mu opioid receptor; MOR Ki) [nM]	Ki (delta opioid receptor; read-out: DOR Ki) [nM]	Ki (mu opioid receptor; read-out: MOR Ki) [nM]
O=C(NC(CO)Cc1ccccc1)c1ccc2c(c1)Oc1ccccc1C2=C1CC2CCC(C1)N2 (single isomer, unassigned) [Cpd 27]	100	100	–	–
O=C(c1ccc2c(c1)Oc1ccccc1C2=C1CC2CCC(C1)N2)N1CCC(O)C1 (single isomer, unassigned) [Cpd 69]	105	2060	–	–
O=C(c1ccc2c(c1)Oc1ccccc1C2=C1CC2CCC(C1)N2)N1CCC(O)C1 (single isomer, unassigned) [Cpd 70]	63	1660	–	–
c1ccc2c(c1)Sc1cc(-c3nnn[nH]3)ccc1C2=C1C[C@H]2CC[C@@H](C1)N2 (single isomer, unassigned) [Cpd 102, (1RS,5SR)-3-[3-(1H-Tetrazol-5-yl)-thioxanthen-9-ylidene]-8-aza-bicyclo[3.2.1]octane]	54	2770	–	–
O=C(c1ccc2c(c1)Oc1ccccc1C2=C1CC2CCC(C1)N2)N1CCC(O)C1 (single isomer, unassigned) [Cpd 127]	191	907	–	–
CCN(CC)C(=N)c1ccc2c(c1)Oc1ccccc1C2=C1CC2CCC(C1)N2 [Cpd 9, 9-(8-Aza-bicyclo[3.2.1]oct-3-ylidene)-N,N-diethyl-9H-xanthene-3-carboxamidine]	14	3540	–	–
O=S1NC(c2ccc3c(c2)Oc2ccccc2C3=C2CC3CCC(C2)N3)=NO1 (stereo not drawn) [Cpd 10, 3-[3-(2-Oxo-2,3-dihydro-2|4-[1,2,3,5]oxathiadiazol-4-yl)-xanthen-9-ylidene]-8-aza-bicyclo[3.2.1]octane]	15.1	819	–	–
CN(C(=O)c1ccc2c(c1)Oc1ccccc1C2=C1CC2CCC(C1)N2)c1ccccc1 [Cpd 14]	27.1	1160	–	–
CN(CCc1ccccc1)C(=O)c1ccc2c(c1)Oc1ccccc1C2=C1CC2CCC(C1)N2 [Cpd 17]	37	37	–	–
NC(=O)c1ccccc1-c1ccc2c(c1)Oc1ccccc1C2=C1CC2CCC(C1)N2 [Cpd 18]	38	1540	–	–
O=C(NCCc1ccccc1)c1ccc2c(c1)Oc1ccccc1C2=C1CC2CCC(C1)N2 [Cpd 19]	45	438	–	–
CC(=O)Nc1cccc(-c2ccc3c(c2)Oc2ccccc2C3=C2CC3CCC(C2)N3)c1 [Cpd 20]	46.6	2800	–	–
Cn1nnnc1-c1ccc2c(c1)Oc1ccccc1C2=C1CC2CCC(C1)N2 [Cpd 21, 3-[3-(1-Methyl-1 H-tetrazol-5-yl)-xanthen-9-ylidene]-8-aza-bicyclo[3.2.1]octane]	54	1740	–	–
CN(C(=O)c1ccc2c(c1)Oc1ccccc1C2=C1CC2CCC(C1)N2)C1CCCCC1 [Cpd 22]	54.9	1120	–	–
OCc1cccc(-c2ccc3c(c2)Oc2ccccc2C3=C2CC3CCC(C2)N3)c1 [Cpd 23]	75	3510	–	–
NC(=NO)c1ccc2c(c1)Oc1ccccc1C2=C1CC2CCC(C1)N2 [Cpd 24]	76.8	621	–	–
Nc1ccccc1-c1ccc2c(c1)Oc1ccccc1C2=C1CC2CCC(C1)N2 [Cpd 25]	77.4	1660	–	–
CCc1cnc(-c2ccc3c(c2)Oc2ccccc2C3=C2CC3CCC(C2)N3)[nH]1 [Cpd 26, 3-[3-(5-Ethyl-1 H-imidazol-2-yl)-xanthen-9-ylidene]-8-aza-bicyclo[3.2.1]-octane]	81	249	–	–
CC(C)CN(CC(C)C)C(=N)c1ccc2c(c1)Oc1ccccc1C2=C1CC2CCC(C1)N2 [Cpd 28]	107	3100	–	–
c1ccc2c(c1)Oc1cc(-c3ccncc3)ccc1C2=C1CC2CCC(C1)N2 [Cpd 29]	133	1820	–	–
CC(=O)Nc1ccc(-c2ccc3c(c2)Oc2ccccc2C3=C2CC3CCC(C2)N3)cc1 [Cpd 30]	139	2740	–	–
COC[C@H](Cc1ccccc1)NC(=O)c1ccc2c(c1)Oc1ccccc1C2=C1CC2CCC(C1)N2 [Cpd 31]	–	–	142	660
COc1ccc(-c2ccc3c(c2)Oc2ccccc2C3=C2CC3CCC(C2)N3)cn1 [Cpd 32]	160	–	–	–
c1ccc2c(c1)Oc1cc(C3=NCCN3)ccc1C2=C1CC2CCC(C1)N2 [Cpd 33]	224	315	–	–

SMILES	Ki (delta opioid receptor; DOR Ki) [nM]	Ki (mu opioid receptor; MOR Ki) [nM]	Ki (delta opioid receptor; read-out: DOR Ki) [nM]	Ki (mu opioid receptor; read-out: MOR Ki) [nM]
O=C(NC1CCC(c2ccccc2)CC1)c1ccc2c(c1)Oc1ccccc1C2=C1CC2CCC(C1)N2 (stereo not drawn) [Cpd 34]	–	–	247	6240
Cc1nnc(-c2ccc3c(c2)Oc2ccccc2C3=C2CC3CCC(C2)N3)[nH]1 [Cpd 35, 3-[3-(5-Methyl-4H-[1,2,4]triazol-3-yl)-xanthen-9-ylidene]-8-aza-bicyclo[3.2.1]octane]	266	673	–	–
Cc1nc(-c2ccc3c(c2)Oc2ccccc2C3=C2CC3CCC(C2)N3)no1 [Cpd 36, 3-[3-(5-Methyl-[1,2,4]oxadiazol-3-yl)-xanthen-9-ylidene]-8-aza-bicyclo[3.2.1]octane]	373	3550	–	–
COC(=O)[C@H](CO)NC(=O)c1ccc2c(c1)Oc1ccccc1C2=C1CC2CCC(C1)N2 [Cpd 37]	412	950	–	–
Oc1cccc(-c2ccc3c(c2)Oc2ccccc2C3=C2CC3CCC(C2)N3)c1 [Cpd 38]	418	706	–	–
CC(C)NC(=N)c1ccc2c(c1)Oc1ccccc1C2=C1CC2CCC(C1)N2 [Cpd 39]	441	5170	–	–
O=C(NCc1ccccc1)c1ccc2c(c1)Oc1ccccc1C2=C1CC2CCC(C1)N2 [Cpd 40]	–	–	456	3090
c1ccc2c(c1)Oc1cc(C3=NCCCN3)ccc1C2=C1CC2CCC(C1)N2 [Cpd 41]	464	875	–	–
Nc1ccc(-c2ccc3c(c2)Oc2ccccc2C3=C2CC3CCC(C2)N3)cc1 [Cpd 42]	490	1310	–	–
N=C(c1ccc2c(c1)Oc1ccccc1C2=C1CC2CCC(C1)N2)N1CCCCC1 [Cpd 43]	496	5340	–	–
COc1ccccc1-c1ccc2c(c1)Oc1ccccc1C2=C1CC2CCC(C1)N2 [Cpd 44]	659	7580	–	–
O=C(NC1CCCC1)c1ccc2c(c1)Oc1ccccc1C2=C1CC2CCC(C1)N2 [Cpd 45]	673	3100	–	–
Cc1cccc(-c2ccc3c(c2)Oc2ccccc2C3=C2CC3CCC(C2)N3)c1 [Cpd 46]	723	–	–	–
O=C(Nc1ccccc1)c1ccc2c(c1)Oc1ccccc1C2=C1CC2CCC(C1)N2 [Cpd 47]	813	1200	–	–
O=C(c1ccc2c(c1)Oc1ccccc1C2=C1CC2CCC(C1)N2)N(CC(F)(F)F)CC(F)(F)F [Cpd 48]	–	–	939	2060
CC(C)CNC(=N)c1ccc2c(c1)Oc1ccccc1C2=C1CC2CCC(C1)N2 [Cpd 49]	1330	4020	–	–
N=C(c1ccc2c(c1)Oc1ccccc1C2=C1CC2CCC(C1)N2)N1CCOCC1 [Cpd 50]	1760	14900	–	–
Fc1cccc(-c2ccc3c(c2)Oc2ccccc2C3=C2CC3CCC(C2)N3)c1 [Cpd 51]	2440	16500	–	–
CN(Cc1ccccc1)C(=O)c1ccc2c(c1)Oc1ccccc1C2=C1CC2CCC(C1)N2 [Cpd 52]	2730	1830	–	–
CS(=O)(=O)c1ccc(-c2ccc3c(c2)Oc2ccccc2C3=C2CC3CCC(C2)N3)cc1 [Cpd 53]	3140	3290	–	–
Fc1ccc(-c2ccc3c(c2)Oc2ccccc2C3=C2CC3CCC(C2)N3)cc1 [Cpd 54]	4470	–	–	–
c1ccc2c(c1)Oc1cc(-c3ccsc3)ccc1C2=C1CC2CCC(C1)N2 [Cpd 55]	4720	9280	–	–
CN(C)CCN(C)C(=O)c1ccc2c(c1)Oc1ccccc1C2=C1CC2CCC(C1)N2 [Cpd 56]	4930	28500	–	–
COc1cccc(-c2ccc3c(c2)Oc2ccccc2C3=C2CC3CCC(C2)N3)c1 [Cpd 57]	6960	19700	–	–
